Tests used:
[1] = biological target: Calcium/calmodulin-dependent protein kinase type II subunit delta (Homo sapiens) (UniProt Q13557); test: Selectivity interaction (KinomeScan (DiscoverX)) EUB0000666a CAMK2D; details: at 10 µM
[2] = biological target: Serine/threonine-protein kinase MARK1 (Homo sapiens) (UniProt Q9P0L2); test: Selectivity interaction (Kinase panel (literature)) EUB0001199aCl MARK1; details: at 1 µM
[3] = biological target: Protein kinase C alpha type (Homo sapiens, UniProt P17252); test: Selectivity interaction (Kinase panel (literature)) EUB0001199aCl PRKCA; details: at 1 µM
[4] = biological target: Tyrosine-protein kinase JAK1 (Homo sapiens, UniProt P23458); test: Selectivity interaction (ActivX KiNativ screen (kinase selectivity in THP-1 cell lysates)) EUB0000639a JAK1; type: subcellular; details: lysate, at 0.04 µM
[5] = biological target: T1, Serine/threonine-protein kinase LATS1 (Homo sapiens) (UniProt O95835); test: Selectivity interaction (KinomeScan (DiscoverX)) EUB0001049a LATS1; details: at 1 µM
T1 sequence (whole entry): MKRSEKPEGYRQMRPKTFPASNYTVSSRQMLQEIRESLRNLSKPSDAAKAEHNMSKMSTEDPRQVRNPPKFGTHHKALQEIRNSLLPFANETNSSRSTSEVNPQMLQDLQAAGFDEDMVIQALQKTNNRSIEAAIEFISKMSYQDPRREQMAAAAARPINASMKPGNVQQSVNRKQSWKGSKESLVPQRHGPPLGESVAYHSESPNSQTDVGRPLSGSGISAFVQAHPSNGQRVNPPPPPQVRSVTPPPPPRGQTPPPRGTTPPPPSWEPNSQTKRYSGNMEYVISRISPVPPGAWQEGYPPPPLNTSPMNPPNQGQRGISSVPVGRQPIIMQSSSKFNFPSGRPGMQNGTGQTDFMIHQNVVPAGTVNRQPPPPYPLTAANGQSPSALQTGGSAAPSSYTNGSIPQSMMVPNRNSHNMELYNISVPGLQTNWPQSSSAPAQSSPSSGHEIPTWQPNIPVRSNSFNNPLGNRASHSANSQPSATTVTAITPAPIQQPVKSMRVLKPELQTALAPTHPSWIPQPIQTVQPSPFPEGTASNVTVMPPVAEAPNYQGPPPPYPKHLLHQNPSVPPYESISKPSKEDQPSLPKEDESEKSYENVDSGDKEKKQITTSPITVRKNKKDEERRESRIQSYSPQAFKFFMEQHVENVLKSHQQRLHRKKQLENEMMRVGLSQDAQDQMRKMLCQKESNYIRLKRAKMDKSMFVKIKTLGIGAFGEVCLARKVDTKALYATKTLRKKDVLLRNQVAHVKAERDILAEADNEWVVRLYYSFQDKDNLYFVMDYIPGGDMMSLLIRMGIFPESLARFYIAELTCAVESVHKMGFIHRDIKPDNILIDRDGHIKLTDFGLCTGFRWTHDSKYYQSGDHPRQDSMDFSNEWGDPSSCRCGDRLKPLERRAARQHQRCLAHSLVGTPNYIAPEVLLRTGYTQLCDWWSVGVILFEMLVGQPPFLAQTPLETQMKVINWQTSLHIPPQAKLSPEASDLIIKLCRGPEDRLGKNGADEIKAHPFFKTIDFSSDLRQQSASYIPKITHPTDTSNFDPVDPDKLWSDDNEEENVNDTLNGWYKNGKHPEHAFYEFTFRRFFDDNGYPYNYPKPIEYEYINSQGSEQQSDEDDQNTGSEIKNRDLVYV

[6] = biological target: T1, Serine/threonine-protein kinase LATS1 (Homo sapiens); test: Selectivity interaction (KinomeScan (DiscoverX)) EUB0000655a LATS1; details: at 10 µM
[7] = test system: Epidermal growth factor receptor (Homo sapiens), P00533 [UNDEFINED MUTATION]; test: Selectivity interaction (KinomeScan (DiscoverX)) EUB0000045b EGFR; details: at 10 µM
[8] = biological target: Beta-3 adrenergic receptor (Homo sapiens) (UniProt P13945); test: Selectivity interaction (GPCR panel (PDSP screen)) EUB0001079a ADRB3; details: at 10 µM
[9] = biological target: T2, Histone-lysine N-methyltransferase EHMT2 (Homo sapiens) (UniProt Q96KQ7); details: at 10 µM
T2 sequence (whole entry): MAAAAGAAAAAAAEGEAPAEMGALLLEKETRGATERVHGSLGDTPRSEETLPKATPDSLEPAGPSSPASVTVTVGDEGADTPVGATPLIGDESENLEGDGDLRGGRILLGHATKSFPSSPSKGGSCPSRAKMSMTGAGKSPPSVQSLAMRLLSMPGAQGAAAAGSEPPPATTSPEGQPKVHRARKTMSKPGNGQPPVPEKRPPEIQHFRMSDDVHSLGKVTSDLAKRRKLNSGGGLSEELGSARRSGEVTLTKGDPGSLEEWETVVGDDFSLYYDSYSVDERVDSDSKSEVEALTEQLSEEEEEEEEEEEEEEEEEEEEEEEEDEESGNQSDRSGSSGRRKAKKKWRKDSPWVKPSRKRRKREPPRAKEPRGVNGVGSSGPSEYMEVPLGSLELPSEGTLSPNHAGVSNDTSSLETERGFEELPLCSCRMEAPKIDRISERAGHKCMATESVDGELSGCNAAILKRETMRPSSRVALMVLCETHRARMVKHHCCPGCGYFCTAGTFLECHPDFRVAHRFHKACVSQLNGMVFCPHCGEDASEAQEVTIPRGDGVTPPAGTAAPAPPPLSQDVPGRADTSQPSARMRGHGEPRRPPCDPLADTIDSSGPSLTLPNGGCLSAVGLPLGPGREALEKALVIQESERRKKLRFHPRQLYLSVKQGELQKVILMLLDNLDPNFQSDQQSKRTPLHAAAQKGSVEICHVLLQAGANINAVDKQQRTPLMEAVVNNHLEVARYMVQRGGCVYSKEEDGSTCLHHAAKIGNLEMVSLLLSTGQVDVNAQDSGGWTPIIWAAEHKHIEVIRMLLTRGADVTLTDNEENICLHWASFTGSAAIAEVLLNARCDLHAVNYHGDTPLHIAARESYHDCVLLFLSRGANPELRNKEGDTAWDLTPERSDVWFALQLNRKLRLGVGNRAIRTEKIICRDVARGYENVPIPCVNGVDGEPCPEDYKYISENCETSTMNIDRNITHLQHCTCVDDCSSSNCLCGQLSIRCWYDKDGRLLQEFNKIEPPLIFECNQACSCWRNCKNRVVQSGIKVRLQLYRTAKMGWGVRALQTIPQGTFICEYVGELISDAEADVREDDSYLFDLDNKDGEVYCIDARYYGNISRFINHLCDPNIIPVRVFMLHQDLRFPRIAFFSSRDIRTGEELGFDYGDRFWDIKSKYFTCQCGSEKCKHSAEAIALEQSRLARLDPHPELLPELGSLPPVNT

[10] = biological target: Casein kinase I isoform delta (Homo sapiens, UniProt P48730); test: Selectivity interaction (KinomeScan (DiscoverX)) EUB0000229b CSNK1D; details: at 10 µM

Chain of Calcium/calmodulin-dependent protein kinase type II subunit delta (Homo sapiens) (Q13557 whole entry): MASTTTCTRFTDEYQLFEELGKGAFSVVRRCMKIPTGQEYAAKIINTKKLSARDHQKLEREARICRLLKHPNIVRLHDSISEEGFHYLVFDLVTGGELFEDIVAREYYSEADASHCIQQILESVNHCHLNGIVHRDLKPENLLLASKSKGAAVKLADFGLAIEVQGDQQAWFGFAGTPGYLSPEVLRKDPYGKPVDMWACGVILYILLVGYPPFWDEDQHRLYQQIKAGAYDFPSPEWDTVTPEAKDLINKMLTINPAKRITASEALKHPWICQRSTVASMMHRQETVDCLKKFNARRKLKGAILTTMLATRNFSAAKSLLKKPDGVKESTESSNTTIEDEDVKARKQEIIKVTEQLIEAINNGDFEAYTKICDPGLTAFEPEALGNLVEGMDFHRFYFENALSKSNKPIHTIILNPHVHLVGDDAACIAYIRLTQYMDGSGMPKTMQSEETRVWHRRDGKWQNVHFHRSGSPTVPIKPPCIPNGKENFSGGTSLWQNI
Chain of Serine/threonine-protein kinase MARK1 (Homo sapiens) (Q9P0L2 whole entry, looked up): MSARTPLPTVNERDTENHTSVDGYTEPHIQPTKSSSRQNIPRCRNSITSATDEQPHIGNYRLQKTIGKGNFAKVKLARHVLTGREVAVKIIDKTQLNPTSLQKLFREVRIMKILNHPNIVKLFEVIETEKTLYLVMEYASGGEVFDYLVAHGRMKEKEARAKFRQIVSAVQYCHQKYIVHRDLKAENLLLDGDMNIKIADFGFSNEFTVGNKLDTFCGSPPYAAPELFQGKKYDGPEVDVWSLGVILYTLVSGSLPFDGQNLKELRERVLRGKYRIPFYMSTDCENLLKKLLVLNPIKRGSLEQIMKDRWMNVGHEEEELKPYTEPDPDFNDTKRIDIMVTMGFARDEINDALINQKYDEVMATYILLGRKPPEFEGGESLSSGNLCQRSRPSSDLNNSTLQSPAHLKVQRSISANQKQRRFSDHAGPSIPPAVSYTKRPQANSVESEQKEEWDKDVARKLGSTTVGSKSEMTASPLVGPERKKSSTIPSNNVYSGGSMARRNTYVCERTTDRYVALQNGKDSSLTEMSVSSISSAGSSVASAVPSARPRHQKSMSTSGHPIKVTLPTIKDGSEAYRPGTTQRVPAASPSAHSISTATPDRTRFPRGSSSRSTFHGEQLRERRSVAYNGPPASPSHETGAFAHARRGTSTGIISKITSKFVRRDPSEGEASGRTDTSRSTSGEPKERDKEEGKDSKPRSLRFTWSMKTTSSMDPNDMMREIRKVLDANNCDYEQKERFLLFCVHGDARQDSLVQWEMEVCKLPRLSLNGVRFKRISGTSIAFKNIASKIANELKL
Chain of Tyrosine-protein kinase JAK1 (P23458 whole entry): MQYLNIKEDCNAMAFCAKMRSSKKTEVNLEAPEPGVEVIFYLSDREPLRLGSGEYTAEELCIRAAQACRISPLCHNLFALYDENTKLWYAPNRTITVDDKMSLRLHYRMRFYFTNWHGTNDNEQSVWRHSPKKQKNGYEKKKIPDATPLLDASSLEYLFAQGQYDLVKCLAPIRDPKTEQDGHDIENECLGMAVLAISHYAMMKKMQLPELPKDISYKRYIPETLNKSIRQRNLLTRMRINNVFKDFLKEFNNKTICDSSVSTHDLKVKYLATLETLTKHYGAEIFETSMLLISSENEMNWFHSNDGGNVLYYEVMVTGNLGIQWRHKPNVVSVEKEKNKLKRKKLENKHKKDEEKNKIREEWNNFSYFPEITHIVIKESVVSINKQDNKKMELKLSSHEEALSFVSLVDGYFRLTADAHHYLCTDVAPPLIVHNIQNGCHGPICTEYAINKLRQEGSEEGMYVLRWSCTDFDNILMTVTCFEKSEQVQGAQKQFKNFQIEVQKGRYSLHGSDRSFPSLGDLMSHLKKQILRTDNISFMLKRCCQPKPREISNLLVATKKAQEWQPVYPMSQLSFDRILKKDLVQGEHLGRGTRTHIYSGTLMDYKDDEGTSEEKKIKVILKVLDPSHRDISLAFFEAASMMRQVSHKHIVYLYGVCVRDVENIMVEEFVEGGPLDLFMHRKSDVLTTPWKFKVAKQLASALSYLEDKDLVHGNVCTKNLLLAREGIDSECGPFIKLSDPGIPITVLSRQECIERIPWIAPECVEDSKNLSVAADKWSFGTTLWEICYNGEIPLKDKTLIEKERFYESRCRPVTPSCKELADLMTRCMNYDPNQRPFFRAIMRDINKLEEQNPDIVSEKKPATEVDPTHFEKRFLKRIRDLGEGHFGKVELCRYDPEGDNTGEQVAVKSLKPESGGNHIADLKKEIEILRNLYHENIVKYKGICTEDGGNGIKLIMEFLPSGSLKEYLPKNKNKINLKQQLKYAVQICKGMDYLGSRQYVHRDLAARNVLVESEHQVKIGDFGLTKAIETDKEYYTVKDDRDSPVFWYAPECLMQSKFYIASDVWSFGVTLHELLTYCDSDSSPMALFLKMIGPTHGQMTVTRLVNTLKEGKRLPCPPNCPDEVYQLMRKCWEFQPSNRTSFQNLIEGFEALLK
Chain of Epidermal growth factor receptor (Homo sapiens), P00533 [UNDEFINED MUTATION] (P00533 whole entry, looked up, change not shown): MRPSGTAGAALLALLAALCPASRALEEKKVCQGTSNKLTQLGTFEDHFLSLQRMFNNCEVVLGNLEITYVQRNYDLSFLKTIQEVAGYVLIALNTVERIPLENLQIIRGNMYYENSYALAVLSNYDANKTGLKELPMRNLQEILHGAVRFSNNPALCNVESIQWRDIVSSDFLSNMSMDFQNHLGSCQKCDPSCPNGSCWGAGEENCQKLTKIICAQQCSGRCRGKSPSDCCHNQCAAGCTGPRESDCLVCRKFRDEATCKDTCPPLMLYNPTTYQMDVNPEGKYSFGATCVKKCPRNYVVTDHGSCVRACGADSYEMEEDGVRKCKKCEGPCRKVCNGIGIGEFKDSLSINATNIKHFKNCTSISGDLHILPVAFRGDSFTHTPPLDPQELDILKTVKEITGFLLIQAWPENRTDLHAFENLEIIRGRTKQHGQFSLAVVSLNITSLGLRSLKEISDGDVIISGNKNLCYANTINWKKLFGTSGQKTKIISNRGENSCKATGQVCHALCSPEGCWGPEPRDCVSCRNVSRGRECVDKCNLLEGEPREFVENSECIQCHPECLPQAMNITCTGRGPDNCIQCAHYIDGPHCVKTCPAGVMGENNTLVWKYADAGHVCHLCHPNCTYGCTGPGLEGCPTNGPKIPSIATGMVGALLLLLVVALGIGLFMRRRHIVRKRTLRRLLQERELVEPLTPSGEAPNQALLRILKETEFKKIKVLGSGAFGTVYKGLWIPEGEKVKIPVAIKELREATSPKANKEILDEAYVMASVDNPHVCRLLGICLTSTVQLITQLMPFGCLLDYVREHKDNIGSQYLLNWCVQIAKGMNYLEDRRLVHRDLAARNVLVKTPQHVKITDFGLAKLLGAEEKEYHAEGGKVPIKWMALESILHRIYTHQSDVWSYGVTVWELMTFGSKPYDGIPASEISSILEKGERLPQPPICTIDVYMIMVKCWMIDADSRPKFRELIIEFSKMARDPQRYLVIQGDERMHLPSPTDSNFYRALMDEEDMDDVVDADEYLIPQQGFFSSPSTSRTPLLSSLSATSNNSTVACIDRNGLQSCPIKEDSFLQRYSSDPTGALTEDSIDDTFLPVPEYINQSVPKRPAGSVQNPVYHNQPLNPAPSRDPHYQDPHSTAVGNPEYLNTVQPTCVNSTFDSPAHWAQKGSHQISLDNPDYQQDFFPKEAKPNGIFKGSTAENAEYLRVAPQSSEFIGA
Chain of Beta-3 adrenergic receptor (Homo sapiens) (P13945 whole entry, looked up): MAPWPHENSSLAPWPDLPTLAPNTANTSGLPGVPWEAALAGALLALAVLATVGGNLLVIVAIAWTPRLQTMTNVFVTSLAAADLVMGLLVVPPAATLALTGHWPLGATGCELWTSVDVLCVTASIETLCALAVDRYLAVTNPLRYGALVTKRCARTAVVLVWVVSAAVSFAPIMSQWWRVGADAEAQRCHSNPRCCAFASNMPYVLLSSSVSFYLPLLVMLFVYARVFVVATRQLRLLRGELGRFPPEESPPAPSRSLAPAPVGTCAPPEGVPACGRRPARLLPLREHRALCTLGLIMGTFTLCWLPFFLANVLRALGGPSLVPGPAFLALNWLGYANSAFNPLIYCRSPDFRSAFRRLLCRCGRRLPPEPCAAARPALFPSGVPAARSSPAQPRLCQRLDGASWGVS

## O=C(NOC[C@H](O)CO)c1ccc(F)c(F)c1Nc1ccc(I)cc1F
[1]
  % of control: 100%

## CN1Cc2nccc(-c3cn(C)nc3-c3ccc(F)cc3)c2C1=O
[2]
  % of inhibition: 8%
[3]
  % of inhibition: -1%

## CC[C@@H]1[C@H](F)C(=O)N[C@@H]1COc1nccc2cc(C(N)=O)c(OC)cc12 [ZIMLOVISERTIB]
[4]
  % of inhibition: -11.6%

## COc1cc(Nc2nc(C)cc(-c3cnn4nc(OC)ccc34)n2)cc(C(F)(F)F)c1
[5]
  % of control: 100%

## CN(C)CCOc1ccc(-c2nc(-c3ccncc3)c(-c3ccc4c(c3)CC/C4=N\O)[nH]2)cc1
[6]
  % of control: 87%

## C=CC(=O)Nc1cc(-n2c(=O)ccc3cnc4ccc(-c5ccc(NS(C)(=O)=O)cc5)cc4c32)ccc1C
[7]
  % of control: 75%

## Nc1cnc(N2CCc3cc(S(=O)(=O)Nc4c(F)cc(Cl)cc4F)cc(N4CCCC4=O)c32)nc1 [TP-020n]
[8]
  % of inhibition: -2.69%

## CNCCN1CCC(c2cc(CN(C)C(=O)c3cccc(Oc4ccccc4)c3)ccn2)CC1
[9]
  % activity: > 90%

## COc1cc(N(C)c2ccnc3ccc(C(F)(F)F)cc23)cc(OC)c1OC
[10]
  % binding: 69%
